Test results published in patent publication US7419657B2, “Treatment of atherosclerotic disorders” (priority 2001, dated 2008).
Where two headings read alike, the source gives them in different places.

Experiments:
Chlamydia = format: biochemical, Chlamydia pneumoniae or Chlamydia Psittaci
lesion IgG = assay: LDL peroxidation by lesion IgG with tested antioxidants; format: biochemical, human
anti-Chlamydia abzymes = format: biochemical, human; details: for Lipid oxidising activity of anti-Chlamydia abzymes: in DMSO, control 61; for Anti-Abzyme activity: control 21.7
[1] = LDL 480 μg of protein, +0.1 M antioxidant, control 0.49 ± 0.023

Compound: CCCCCCCCCCCCOS(=O)(=O)[O-].[Na+] [SDS]
- lipid oxidising reaction in the test system (Chlamydia): no lipid oxidising reaction

Compound: N.N.O=S(=O)(O)O [ammonium sulphate]
- lipid oxidising reaction in the test system (Chlamydia): no lipid oxidising reaction

Compound: O=C1O[C@H]([C@@H](O)CO)C(O)=C1O [ascorbic acid]
- Level of MDA production by 0.82 μg of lesion IgG (lesion IgG): 0 µM

Compound: O=C(O)c1ccccc1 [benzole acid]
- Level of MDA production by 0.82 μg of lesion IgG (lesion IgG; [1]): 0 µM

Compound: C=O [formalin]
- lipid oxidising reaction in the test system (Chlamydia): no lipid oxidising reaction

Compound: O=C[O-].[Na+] [sodium formate]
- Level of MDA production by 0.82 μg of lesion IgG (lesion IgG; [1]): 0 µM

Compound: Cc1c(C)c2c(c(C)c1O)CC[C@@](C)(CCC[C@H](C)CCC[C@H](C)CCCC(C)C)O2 [α-Tocopherol]
- Lipid oxidising activity of anti-Chlamydia abzymes (anti-Chlamydia abzymes; 1 μM): 15 μM MDA/ml
- Lipid oxidising activity of anti-Chlamydia abzymes (anti-Chlamydia abzymes; 10 μM): 0 μM MDA/ml

Compound: Heparin
- Anti-Abzyme activity (anti-Chlamydia abzymes; drug 0.1 mg/ml): 19.7 μM MDA/ml

Compound: Igepal CA-630
- development of lipid oxidation reaction (Chlamydia): completely abrogated
- oxidation of the lipids in the bacteria by the extracted abzymes (Chlamydia): abolished

Compound: Nadroparin Calcium
- Anti-Abzyme activity (anti-Chlamydia abzymes; drug 95 UI): 20.5 μM MDA/ml
- Anti-Abzyme activity (anti-Chlamydia abzymes; drug 465 UI): 12.8 μM MDA/ml

Compound: Triton X-100
- development of lipid oxidation reaction (Chlamydia): completely abrogated
- oxidation of the lipids in the bacteria by the extracted abzymes (Chlamydia): abolished
